Data taken from the NIST ThermoML archive (doi:10.1016/j.jct.2016.03.021).
Numbers after ± are expanded uncertainties.

Assay: wn = mass fraction of the nth substance listed
Details: Liquid; for mass density: Vibrating tube method

NCCO [2-aminoethan-1-ol] + O
mass density [kg/m3]
Details | w1 = 0.1001 | w1 = 0.2 | w1 = 0.3005 | w1 = 0.4
333.15 K, 30000 kPa | – | – | 1003.5 ± 0.7 | 1006.7 ± 0.7
333.15 K, 40000 kPa | 1002.7 ± 0.7 | 1004.5 ± 0.7 | 1007.3 ± 0.7 | 1010.4 ± 0.7
333.15 K, 50000 kPa | 1006.5 ± 0.7 | 1008 ± 0.7 | 1010.8 ± 0.7 | 1013.8 ± 0.7
333.15 K, 60000 kPa | 1010.4 ± 0.7 | 1011.7 ± 0.7 | 1014.4 ± 0.7 | 1017.3 ± 0.7
333.15 K, 70000 kPa | 1014.1 ± 0.7 | 1015.2 ± 0.7 | 1017.8 ± 0.7 | 1020.7 ± 0.7
333.15 K, 80000 kPa | 1017.7 ± 0.7 | 1018.7 ± 0.7 | 1021.1 ± 0.7 | 1024 ± 0.7
333.15 K, 90000 kPa | 1021.3 ± 0.7 | 1022.1 ± 0.7 | 1024.4 ± 0.7 | 1027.1 ± 0.7
333.15 K, 100000 kPa | 1024.8 ± 0.7 | 1025.5 ± 0.7 | 1027.7 ± 0.7 | 1030.3 ± 0.7
333.15 K, 110000 kPa | 1028.1 ± 0.7 | 1028.8 ± 0.7 | 1031 ± 0.7 | 1033.5 ± 0.7
333.15 K, 120000 kPa | 1031.7 ± 0.7 | 1032.2 ± 0.7 | 1034.2 ± 0.7 | 1036.7 ± 0.7
353.15 K, 100 kPa | 974.7 ± 0.7 | 976.7 ± 0.7 | 979.2 ± 0.7 | 981.9 ± 0.7
353.15 K, 500 kPa | 974.7 ± 0.7 | 976.7 ± 0.7 | 979.4 ± 0.7 | 982 ± 0.7
353.15 K, 1000 kPa | 975 ± 0.7 | 976.9 ± 0.7 | 979.6 ± 0.7 | 982.2 ± 0.7
353.15 K, 2000 kPa | 975.4 ± 0.7 | 977.4 ± 0.7 | 980 ± 0.7 | 982.6 ± 0.7
353.15 K, 5000 kPa | 976.7 ± 0.7 | 978.6 ± 0.7 | 981.2 ± 0.7 | 983.9 ± 0.7
353.15 K, 10000 kPa | 978.9 ± 0.7 | 980.8 ± 0.7 | 983.3 ± 0.7 | 986 ± 0.7
353.15 K, 15000 kPa | 981.1 ± 0.7 | 982.9 ± 0.7 | 985.4 ± 0.7 | 988 ± 0.7
353.15 K, 20000 kPa | 983.2 ± 0.7 | 984.9 ± 0.7 | 987.4 ± 0.7 | 990 ± 0.7
353.15 K, 30000 kPa | 987.4 ± 0.7 | 988.9 ± 0.7 | 991.4 ± 0.7 | 993.9 ± 0.7
353.15 K, 40000 kPa | 991.4 ± 0.7 | 992.9 ± 0.7 | 995.2 ± 0.7 | 997.7 ± 0.7
353.15 K, 50000 kPa | 995.4 ± 0.7 | 996.7 ± 0.7 | 999 ± 0.7 | 1001.4 ± 0.7
353.15 K, 60000 kPa | 999.4 ± 0.7 | 1000.6 ± 0.7 | 1002.7 ± 0.7 | 1005.1 ± 0.7
353.15 K, 70000 kPa | 1003.1 ± 0.7 | 1004.2 ± 0.7 | 1006.2 ± 0.7 | 1008.6 ± 0.7
353.15 K, 80000 kPa | 1006.9 ± 0.7 | 1007.7 ± 0.7 | 1009.8 ± 0.7 | 1012.1 ± 0.7
353.15 K, 90000 kPa | 1010.5 ± 0.7 | 1011.3 ± 0.7 | 1013.1 ± 0.7 | 1015.3 ± 0.7
353.15 K, 100000 kPa | 1014.1 ± 0.7 | 1014.7 ± 0.7 | 1016.6 ± 0.7 | 1018.7 ± 0.7
353.15 K, 110000 kPa | 1017.7 ± 0.7 | 1018.2 ± 0.7 | 1020 ± 0.7 | 1022.1 ± 0.7

viscosity [mPa·s]
Details | 333.15 K | 353.15 K
93 kPa, Concentric cylinders viscometry, w1 = 0.3 | – | 0.764 ± 0.016
93 kPa, Concentric cylinders viscometry, w1 = 0.4 | – | 0.9518 ± 0.02
100 kPa, Falling or rolling sphere viscometry, w1 = 0.3005 | – | 0.746 ± 0.023
100 kPa, Falling or rolling sphere viscometry, w1 = 0.4001 | – | 0.942 ± 0.029
101 kPa, Falling or rolling sphere viscometry, w1 = 0.3 | – | 0.746 ± 0.023
101 kPa, Falling or rolling sphere viscometry, w1 = 0.4 | – | 0.942 ± 0.029
5000 kPa, Falling or rolling sphere viscometry, w1 = 0.3005 | – | 0.748 ± 0.023
5000 kPa, Falling or rolling sphere viscometry, w1 = 0.4001 | – | 0.944 ± 0.029
10000 kPa, Falling or rolling sphere viscometry, w1 = 0.3005 | – | 0.755 ± 0.023
10000 kPa, Falling or rolling sphere viscometry, w1 = 0.4001 | – | 0.957 ± 0.03
20000 kPa, Falling or rolling sphere viscometry, w1 = 0.3005 | – | 0.768 ± 0.024
20000 kPa, Falling or rolling sphere viscometry, w1 = 0.4001 | – | 0.975 ± 0.03
30000 kPa, Falling or rolling sphere viscometry, w1 = 0.3005 | – | 0.777 ± 0.024
30000 kPa, Falling or rolling sphere viscometry, w1 = 0.4001 | – | 0.989 ± 0.031
40000 kPa, Falling or rolling sphere viscometry, w1 = 0.1001 | 0.63 ± 0.019 | –
40000 kPa, Falling or rolling sphere viscometry, w1 = 0.2 | 0.815 ± 0.025 | –
40000 kPa, Falling or rolling sphere viscometry, w1 = 0.3005 | 1.115 ± 0.034 | 0.787 ± 0.024
40000 kPa, Falling or rolling sphere viscometry, w1 = 0.4001 | 1.475 ± 0.046 | 1.006 ± 0.031
60000 kPa, Falling or rolling sphere viscometry, w1 = 0.1001 | 0.639 ± 0.02 | –
60000 kPa, Falling or rolling sphere viscometry, w1 = 0.2 | 0.829 ± 0.026 | 0.607 ± 0.019
60000 kPa, Falling or rolling sphere viscometry, w1 = 0.3005 | 1.14 ± 0.035 | 0.807 ± 0.025
60000 kPa, Falling or rolling sphere viscometry, w1 = 0.4001 | 1.518 ± 0.047 | 1.039 ± 0.032
80000 kPa, Falling or rolling sphere viscometry, w1 = 0.1001 | 0.646 ± 0.02 | –
80000 kPa, Falling or rolling sphere viscometry, w1 = 0.2 | 0.844 ± 0.026 | 0.619 ± 0.019
80000 kPa, Falling or rolling sphere viscometry, w1 = 0.3005 | 1.165 ± 0.036 | 0.828 ± 0.026
80000 kPa, Falling or rolling sphere viscometry, w1 = 0.4001 | 1.559 ± 0.048 | 1.068 ± 0.033
100000 kPa, Falling or rolling sphere viscometry, w1 = 0.1001 | 0.655 ± 0.02 | –
100000 kPa, Falling or rolling sphere viscometry, w1 = 0.2 | 0.859 ± 0.027 | 0.632 ± 0.02
100000 kPa, Falling or rolling sphere viscometry, w1 = 0.3005 | 1.189 ± 0.037 | 0.847 ± 0.026
100000 kPa, Falling or rolling sphere viscometry, w1 = 0.4001 | 1.6 ± 0.049 | 1.097 ± 0.034
120000 kPa, Falling or rolling sphere viscometry, w1 = 0.1001 | 0.663 ± 0.02 | –
120000 kPa, Falling or rolling sphere viscometry, w1 = 0.2 | 0.874 ± 0.027 | –
120000 kPa, Falling or rolling sphere viscometry, w1 = 0.3005 | 1.211 ± 0.037 | –
120000 kPa, Falling or rolling sphere viscometry, w1 = 0.4001 | 1.645 ± 0.051 | –
